Measured values published in ChEMBL document CHEMBL1201862, “PubChem BioAssay data set” (2004).
Activity calls are given as the source filed them.

Experiments:
Prothrombin = Prothrombin (Homo sapiens, UniProt P00734); experiment: Thrombin 1536 HTS Dose Response Confirmation. [Related pubchem assays: 1046 (Thrombin 1536 HTS; hits were confirmed in this assay)]; type: functional
[1] = inhibitors of PGC1a acetylation in cells, dose response, cell-based, cherry-picked samples (AID 720514); type: functional;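 also: potency may reflect raised or lowered acetylation signal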
[2] = inhibitors of firefly luciferase expression or activity, dose response, H4 neuroglioma cells, luminescence (AID 1990); type: functional, cell-based
[3] = HepG2 cell cytotoxicity, dose response, cytotoxicity control for Shn3 inhibitor project, CellTiter-Glo, cherry-picked (AID 624134); type: functional, cell-based
[4] = inhibitors of clade B AD8 Env fusion, dose response, cell-based, cherry-pick (AID 652062); type: functional;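 also: luciferase signal from cell-cell fusion driven by HIV-1 clade B AD8 Env; potency is for inhibitors of fusion seen as a drop in luminescence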
[5] = Luminescence Cell-Based Dose Response HTS to Identify Inhibitors of 5'UTR Stem-Loop Driven Prion Protein mRNA Translation in H4 Neuroglioblastoma Cells. [Related pubchem assays: 1827 (Project Summary), 1813 (Primary HTS)]; type: functional
[6] = CEM21 lymphoblast cell cytotoxicity, dose response, cytotoxicity control for viral fusion inhibitor project, CellTiter-Glo luminescence, cherry-picked (AID 652042); type: functional, cell-based;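 also: potency for signal decrease meaning cytotoxicity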
[7] = Luminescence Cell-Based Dose Retest to Confirm Inhibitors of Cancer Stem Cells. [Related pubchem assays (depositor defined):AID2717, AID2721]; type: functional; conditions: Homo sapiens
[8] = ZM109 Env clade C HIV-1 fusion inhibitors, dose response, HeLa effector, CEM target cells, luciferase, cherry-pick (AID 652058); type: functional, cell-based
[9] = Shn3 3'UTR reporter inhibitors, dose response, cell-based, Clone20 osteoblasts, firefly luciferase, cherry-picked (AID 624132); type: functional;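 also: firefly luciferase luminescence from reporter carrying the Shn3 3'UTR in osteoblasts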
[10] = control 3'UTR Renilla luciferase suppression, dose response, counter-screen for Shn3 inhibitor project, cell-based, Clone20-Shn3RL, cherry-picked (AID 624133); type: functional
[11] = inhibitors of SNCA 5'UTR-driven reporter translation, confirmation, H4 neuroglioma cells, luminescence (AID 1988); type: functional, cell-based
[12] = off-target signal loss in HeLa-CEM21 co-culture – HeLa F-luc CTL cells, cherry-picked, counter-screen for HIV-1 Env fusion inhibitor project, dose response (AID 652040); type: functional, cell-based;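 also: potency for signal decrease marking cytotoxic or nonspecific inhibition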
[13] = inhibitors of HIV Env-driven cell fusion, dose response, cherry-pick (AID 652057); type: functional, cell-based
Paired box protein Pax-8 = Paired box protein Pax-8 (Homo sapiens, UniProt Q06710); experiment: inhibitors of PAX8-driven TPO luciferase reporter, dose response, RMG-I cells, cherry-pick (AID 687027); type: functional, cell-based;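 also: luciferase reporter driven by Pax8 target thyroperoxidase promoter measured by SteadyGlo luminescence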
Sequence of Paired box protein Pax-8 (Q06710 whole entry, the tested form may be a part): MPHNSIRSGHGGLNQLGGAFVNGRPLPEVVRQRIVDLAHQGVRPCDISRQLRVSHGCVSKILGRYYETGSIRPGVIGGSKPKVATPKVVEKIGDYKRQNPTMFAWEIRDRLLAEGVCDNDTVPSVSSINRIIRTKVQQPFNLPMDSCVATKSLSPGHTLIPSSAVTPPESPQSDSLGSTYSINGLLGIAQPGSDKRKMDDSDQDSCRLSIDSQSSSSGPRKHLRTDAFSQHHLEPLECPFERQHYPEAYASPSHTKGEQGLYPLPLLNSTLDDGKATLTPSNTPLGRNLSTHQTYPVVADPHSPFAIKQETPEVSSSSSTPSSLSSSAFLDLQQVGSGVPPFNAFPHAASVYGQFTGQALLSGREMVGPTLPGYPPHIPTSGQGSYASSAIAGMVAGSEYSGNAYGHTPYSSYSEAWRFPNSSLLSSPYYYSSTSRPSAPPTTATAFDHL

Fatty acid synthase [14] = target: T1, Fatty acid synthase (Homo sapiens, UniProt P49327); experiment: FAS thioesterase domain inhibitors, dose response, biochemical, endpoint fluorescence intensity, uHTS hits (AID 624327); type: functional;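 also: fluorescence from hydrolysis of an O-methyl fluorescein acyl ester substrate by the enzyme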
T1 sequence (P49327 whole entry, the tested form may be a part): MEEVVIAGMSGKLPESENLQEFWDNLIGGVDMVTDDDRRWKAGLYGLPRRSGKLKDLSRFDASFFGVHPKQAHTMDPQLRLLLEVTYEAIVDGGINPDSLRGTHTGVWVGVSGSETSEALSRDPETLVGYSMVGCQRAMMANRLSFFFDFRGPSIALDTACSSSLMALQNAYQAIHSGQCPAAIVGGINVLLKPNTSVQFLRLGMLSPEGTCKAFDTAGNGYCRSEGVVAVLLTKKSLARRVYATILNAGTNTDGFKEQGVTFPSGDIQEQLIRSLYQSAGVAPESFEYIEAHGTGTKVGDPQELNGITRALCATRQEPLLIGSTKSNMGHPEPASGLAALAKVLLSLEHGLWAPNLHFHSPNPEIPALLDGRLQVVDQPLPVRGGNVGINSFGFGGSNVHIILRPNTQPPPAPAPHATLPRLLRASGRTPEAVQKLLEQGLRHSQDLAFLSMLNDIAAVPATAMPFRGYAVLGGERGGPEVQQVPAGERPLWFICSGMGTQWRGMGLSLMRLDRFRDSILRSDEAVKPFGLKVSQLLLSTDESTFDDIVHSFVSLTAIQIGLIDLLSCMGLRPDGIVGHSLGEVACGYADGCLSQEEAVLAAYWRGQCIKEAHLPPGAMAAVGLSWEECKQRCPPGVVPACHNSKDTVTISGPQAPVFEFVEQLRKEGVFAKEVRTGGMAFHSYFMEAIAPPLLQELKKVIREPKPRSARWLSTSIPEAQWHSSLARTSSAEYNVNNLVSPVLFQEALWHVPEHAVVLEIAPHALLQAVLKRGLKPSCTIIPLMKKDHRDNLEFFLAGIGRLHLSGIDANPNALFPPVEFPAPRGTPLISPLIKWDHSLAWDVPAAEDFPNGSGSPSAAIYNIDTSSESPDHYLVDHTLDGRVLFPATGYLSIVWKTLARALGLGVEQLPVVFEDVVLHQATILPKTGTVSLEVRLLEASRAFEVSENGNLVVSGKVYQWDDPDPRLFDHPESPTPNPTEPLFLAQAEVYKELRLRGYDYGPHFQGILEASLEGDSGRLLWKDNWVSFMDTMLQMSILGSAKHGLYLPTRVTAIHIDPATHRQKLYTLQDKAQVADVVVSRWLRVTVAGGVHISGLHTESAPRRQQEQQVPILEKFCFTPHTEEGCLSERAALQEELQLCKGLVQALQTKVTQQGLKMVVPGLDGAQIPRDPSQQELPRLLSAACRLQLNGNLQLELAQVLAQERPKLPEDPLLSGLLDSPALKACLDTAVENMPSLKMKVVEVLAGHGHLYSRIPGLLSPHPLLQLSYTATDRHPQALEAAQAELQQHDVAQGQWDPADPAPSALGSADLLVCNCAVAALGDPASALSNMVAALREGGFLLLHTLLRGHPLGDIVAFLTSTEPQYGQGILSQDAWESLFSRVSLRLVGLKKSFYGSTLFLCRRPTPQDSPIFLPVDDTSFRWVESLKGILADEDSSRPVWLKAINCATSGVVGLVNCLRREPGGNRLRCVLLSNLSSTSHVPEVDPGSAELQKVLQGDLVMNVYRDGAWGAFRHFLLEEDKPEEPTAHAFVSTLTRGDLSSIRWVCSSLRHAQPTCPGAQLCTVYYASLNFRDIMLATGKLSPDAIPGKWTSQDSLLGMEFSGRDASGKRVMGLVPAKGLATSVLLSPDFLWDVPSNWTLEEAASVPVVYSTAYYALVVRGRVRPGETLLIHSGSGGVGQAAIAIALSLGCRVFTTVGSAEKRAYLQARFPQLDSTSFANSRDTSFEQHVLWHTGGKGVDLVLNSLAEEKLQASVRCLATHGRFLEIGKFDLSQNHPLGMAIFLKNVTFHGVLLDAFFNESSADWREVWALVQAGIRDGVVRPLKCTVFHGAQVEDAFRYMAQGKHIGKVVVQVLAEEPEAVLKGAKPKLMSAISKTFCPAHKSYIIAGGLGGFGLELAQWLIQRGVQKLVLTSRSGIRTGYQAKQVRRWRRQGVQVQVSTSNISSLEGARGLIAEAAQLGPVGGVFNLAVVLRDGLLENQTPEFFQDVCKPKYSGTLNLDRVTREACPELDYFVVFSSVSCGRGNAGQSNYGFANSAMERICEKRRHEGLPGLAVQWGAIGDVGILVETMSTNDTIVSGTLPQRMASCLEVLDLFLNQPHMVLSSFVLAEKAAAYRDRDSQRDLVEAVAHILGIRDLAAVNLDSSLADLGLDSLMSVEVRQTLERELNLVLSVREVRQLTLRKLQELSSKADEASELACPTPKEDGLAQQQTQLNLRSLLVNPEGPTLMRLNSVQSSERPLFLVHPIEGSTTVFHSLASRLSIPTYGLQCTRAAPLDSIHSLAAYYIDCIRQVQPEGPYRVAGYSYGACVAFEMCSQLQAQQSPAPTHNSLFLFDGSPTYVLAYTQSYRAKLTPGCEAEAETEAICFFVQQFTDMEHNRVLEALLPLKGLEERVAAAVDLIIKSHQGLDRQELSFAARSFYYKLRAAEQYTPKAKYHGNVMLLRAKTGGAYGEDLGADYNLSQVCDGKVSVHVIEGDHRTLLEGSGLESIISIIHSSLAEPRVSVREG

Fatty acid synthase [15] = target: T1, Fatty acid synthase; experiment: FAS thioesterase domain inhibitors, dose response, biochemical, kinetic fluorescence intensity (AID 624326); type: functional;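 also: rate of fluorescence rise from hydrolysis of a fluorogenic O-methyl fluorescein ester substrate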
[16] = THP-1 cell cytotoxicity, dose response, cytotoxicity control for Vif-APOBEC3G degradation inhibitor project, THP-1 cells (AID 1117359); type: functional; conditions: Human immunodeficiency virus 1, THP-1
Streptococcus = experiment: Group A Streptococcus viability loss, dose response, counter-screen for streptokinase expression inhibitor project, luminescence, BacTiterGlo (AID 1915); type: functional, organism-based;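 also: potency for reduction of bacterial viability or growth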
[17] = system: Streptococcus sp. 'group A'; experiment: growth inhibition of control SK(-) GAS strain, dose response, counter-screen for streptokinase expression inhibitor project, luminescence, kanamycin, BacTiterGlo, confirmation (AID 1900); type: functional, organism-based
Streptokinase A = target: T2, Streptokinase A (Streptococcus pyogenes serotype M1, UniProt P10520); experiment: S. pyogenes streptokinase expression inhibitors, potency, dose response, plasminogen activation absorbance, OD405 (AID 1914); type: functional, Streptococcus pyogenes M1 GAS;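 also: secreted streptokinase activity via plasminogen activation per viability signal from cell pellet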
T2 sequence (P10520 whole entry): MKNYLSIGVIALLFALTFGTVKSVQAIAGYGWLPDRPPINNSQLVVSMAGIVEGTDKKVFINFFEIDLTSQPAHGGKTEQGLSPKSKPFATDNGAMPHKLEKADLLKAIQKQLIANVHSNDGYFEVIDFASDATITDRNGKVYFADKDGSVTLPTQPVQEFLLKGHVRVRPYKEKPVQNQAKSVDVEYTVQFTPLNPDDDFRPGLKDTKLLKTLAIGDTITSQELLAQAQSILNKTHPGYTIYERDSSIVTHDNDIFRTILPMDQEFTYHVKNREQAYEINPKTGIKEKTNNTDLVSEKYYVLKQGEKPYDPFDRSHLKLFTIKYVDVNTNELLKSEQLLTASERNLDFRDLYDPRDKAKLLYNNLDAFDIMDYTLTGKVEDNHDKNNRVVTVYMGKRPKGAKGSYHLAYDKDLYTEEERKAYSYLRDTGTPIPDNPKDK

cells [18] = type: functional, cell-based
cells [19] = type: functional, cell-based; remark: listed apart in the source
[20] = target: T3, Histone-lysine N-methyltransferase NSD2 (Homo sapiens, UniProt O96028); type: biochemical
T3 sequence (O96028 whole entry): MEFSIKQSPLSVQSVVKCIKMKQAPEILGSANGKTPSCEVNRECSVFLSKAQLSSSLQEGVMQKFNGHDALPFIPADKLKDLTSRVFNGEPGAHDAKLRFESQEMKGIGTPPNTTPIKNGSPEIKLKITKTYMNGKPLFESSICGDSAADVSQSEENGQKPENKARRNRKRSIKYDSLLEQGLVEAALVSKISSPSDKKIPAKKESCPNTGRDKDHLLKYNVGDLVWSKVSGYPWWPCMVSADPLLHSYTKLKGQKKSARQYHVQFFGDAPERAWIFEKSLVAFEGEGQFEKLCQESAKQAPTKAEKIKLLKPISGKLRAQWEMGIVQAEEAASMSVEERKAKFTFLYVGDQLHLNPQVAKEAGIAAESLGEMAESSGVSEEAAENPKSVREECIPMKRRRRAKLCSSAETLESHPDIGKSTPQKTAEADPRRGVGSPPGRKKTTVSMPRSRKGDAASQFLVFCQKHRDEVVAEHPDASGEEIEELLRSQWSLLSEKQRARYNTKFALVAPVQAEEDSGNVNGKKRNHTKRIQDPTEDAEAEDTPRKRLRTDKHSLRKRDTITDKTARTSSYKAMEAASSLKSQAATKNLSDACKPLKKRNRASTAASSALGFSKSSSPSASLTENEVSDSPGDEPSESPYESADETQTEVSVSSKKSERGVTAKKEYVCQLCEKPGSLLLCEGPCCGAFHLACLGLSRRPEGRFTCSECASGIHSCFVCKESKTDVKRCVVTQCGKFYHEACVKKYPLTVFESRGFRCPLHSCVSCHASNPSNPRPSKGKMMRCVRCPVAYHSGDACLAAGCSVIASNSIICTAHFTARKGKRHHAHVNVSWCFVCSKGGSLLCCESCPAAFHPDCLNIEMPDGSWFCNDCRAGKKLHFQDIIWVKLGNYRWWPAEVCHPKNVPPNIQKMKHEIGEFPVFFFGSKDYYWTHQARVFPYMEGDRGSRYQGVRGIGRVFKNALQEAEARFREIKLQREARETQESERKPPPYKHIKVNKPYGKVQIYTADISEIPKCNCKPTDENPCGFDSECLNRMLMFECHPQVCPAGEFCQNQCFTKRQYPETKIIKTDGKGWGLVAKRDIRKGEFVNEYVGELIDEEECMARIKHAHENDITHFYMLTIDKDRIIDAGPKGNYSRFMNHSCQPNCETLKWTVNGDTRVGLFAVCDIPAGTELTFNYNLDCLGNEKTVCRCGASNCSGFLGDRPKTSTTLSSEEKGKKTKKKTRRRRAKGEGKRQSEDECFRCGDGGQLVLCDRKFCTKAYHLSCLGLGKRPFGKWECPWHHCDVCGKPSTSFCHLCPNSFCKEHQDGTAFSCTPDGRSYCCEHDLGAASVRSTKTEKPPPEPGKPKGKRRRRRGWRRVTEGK

[21] = P. falciparum Dd2 growth inhibitors, dose response, SYBR Green, cherry-picked samples (AID 1159567); type: functional, cell-based
[22] = HepG2 cell cytotoxicity, dose response, cytotoxicity control, cherry-picked samples (AID 1159577); type: functional, cell-based
Leucine aminopeptidase = target: T4, Leucine aminopeptidase (Plasmodium falciparum 3D7, UniProt Q8IL11); experiment: P. falciparum M17LAP inhibitors, primary screen, biochemical, fluorogenic H-Leu-NHMec substrate, 1536-well (AID 1619); type: functional
T4 sequence (Q8IL11 whole entry): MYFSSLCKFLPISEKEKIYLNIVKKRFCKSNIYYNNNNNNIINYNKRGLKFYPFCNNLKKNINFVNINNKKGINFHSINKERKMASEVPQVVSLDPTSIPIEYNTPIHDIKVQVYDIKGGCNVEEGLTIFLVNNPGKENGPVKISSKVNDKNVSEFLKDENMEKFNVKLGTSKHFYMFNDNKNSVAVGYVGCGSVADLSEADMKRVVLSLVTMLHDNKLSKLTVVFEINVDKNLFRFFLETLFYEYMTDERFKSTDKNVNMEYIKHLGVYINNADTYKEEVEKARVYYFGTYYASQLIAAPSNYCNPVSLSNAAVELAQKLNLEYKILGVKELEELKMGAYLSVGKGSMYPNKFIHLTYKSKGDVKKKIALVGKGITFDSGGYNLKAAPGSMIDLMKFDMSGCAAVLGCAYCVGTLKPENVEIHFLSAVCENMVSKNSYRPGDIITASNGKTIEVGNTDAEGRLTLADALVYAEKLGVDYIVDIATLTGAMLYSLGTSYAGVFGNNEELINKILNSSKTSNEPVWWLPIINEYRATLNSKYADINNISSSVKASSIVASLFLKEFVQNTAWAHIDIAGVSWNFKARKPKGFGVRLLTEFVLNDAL

[23] = target: FAD-linked sulfhydryl oxidase ALR (Homo sapiens, UniProt P55789); experiment: inhibitors of human ALR sulfhydryl oxidase, dose response, biochemical, H2O2 detection, luminescence, cherry-pick (AID 493248)
Sequence of FAD-linked sulfhydryl oxidase ALR (P55789 whole entry): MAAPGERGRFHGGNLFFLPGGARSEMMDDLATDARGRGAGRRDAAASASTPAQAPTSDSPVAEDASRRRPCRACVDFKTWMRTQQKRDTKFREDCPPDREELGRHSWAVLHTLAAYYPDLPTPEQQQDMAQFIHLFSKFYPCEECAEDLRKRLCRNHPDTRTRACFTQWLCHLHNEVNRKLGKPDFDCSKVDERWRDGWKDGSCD

[24] = cytotoxicity in HEK-293T cells, dose response, cytotoxicity control for TCR NF-kB inhibitor project, luminescence, T-cell screen hits (AID 489026); type: functional, cell-based;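 also: cells exposed to compound about 14 hours before the viability readout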

CCN(CC)S(=O)(=O)c1ccc2c(c1)c(=O)c(C(=O)NCc1ccc3c(c1)OCO3)cn2C
IC50 (Prothrombin): 0.852 µM (active)

O=C(Cn1nc(C(F)F)cc1C(F)F)NNC(=S)Nc1ccc(F)cc1
IC50 (Prothrombin): > 50 µM (not active)

O=C1c2ccccc2-[n+]2ccc3c([nH]c4ccccc43)c21 [FASCAPLYSIN]
AC50 [1]: 0.358 µM (active)

Fc1ccc(C(OCCN2CCN(CCCc3ccccc3)CC2)c2ccc(F)cc2)cc1
EC50 [2]: 9.61 µM (active) | AC50 [3]: 38.8 µM (active) | AC50 [4]: 12.3 µM (active) | EC50 [5]: > 120 µM (not active) | AC50 [6]: 14.5 µM (active) | AC50 [7]: 3.05 µM (active) | AC50 [8]: 8.74 µM (active) | AC50 [9]: 6.17 µM (active) | AC50 [10]: 8.11 µM (active) | EC50 [11]: > 120 µM (not active) | AC50 [12]: 13 µM (active) | AC50 [13]: 8.27 µM (active)

C[C@H](CO)N1C[C@H](C)[C@H](CN(C)C(=O)NC2CCCCC2)Oc2cc(C#Cc3cccc(F)c3)ccc2S1(=O)=O
AC50 (Paired box protein Pax-8): 6.2 µM (active) | AC50 [1]: 14.1 µM (active)

C#CCN(C[C@H]1[C@H](OC(=O)NC2CCCC2)[C@H](OC(=O)NC2CCCC2)C[C@H]2C(=O)N(c3ccccc3)C(=O)[C@@H]12)S(=O)(=O)c1ccc(C)cc1
IC50 (Fatty acid synthase [14]): 47.5 µM (inactive) | IC50 (Fatty acid synthase [15]): 23 µM (inactive)

Cc1cc(C)c(C)c(OCCCOc2cccc3cccnc23)c1
CC50 [16]: 15.4 µM (active) | EC50 (Streptococcus): 39.4 µM (active) | EC50 [17]: 13.1 µM (active) | EC50 (Streptokinase A): > 150 µM (not active)

Cc1ccc(S(=O)(=O)N2CCC(=O)N(CCOC(=O)Nc3cccc(Cl)c3)CC2)cc1
AC50 [4]: 7.72 µM (active) | AC50 [8]: 4.6 µM (active) | AC50 [12]: 4.11 µM (active) | AC50 [13]: 3.12 µM (active)

COc1ccc(-c2cc(C)nc(SCC(=O)c3cccc([N+](=O)[O-])c3)n2)cc1
CC50 [16]: > 40 µM (active)

CC(C)(C)CN1CCNC(=O)C1CC(=O)NCCc1ccccc1F (stereo not drawn)
EC50 (cells [18]): > 29.9 µM (inactive) | IC50 (cells [19]): > 29.9 µM (inactive)

O=C(Cc1ccccc1)n1nc(-c2ccccc2)nc1NCc1ccco1
IC50 (Prothrombin): 0.1 µM (active)

CNCCCCOc1ccccc1-c1ccccc1
AC50 [20]: > 20 µM (inactive)

CCN(CC)CCNC(=O)Cc1nn(Cc2ccccc2)c(=O)c2ccccc12
AC50 [20]: > 20 µM (inactive)

CC(C(=O)NCC1CCCCC1)N(C)Cc1ccc(Br)cc1 (stereo not drawn)
CC50 [16]: > 40 µM (active)

OC[C@@H]1[C@H](c2ccc(C#CC3CCCC3)cc2)[C@H]2CN(CCC(F)(F)F)CCCCN12
AC50 [21]: 1.43 µM (active) | AC50 [22]: 9.12 µM (active) | AC50 [1]: 10.4 µM (active)

CCN1CCN(S(=O)(=O)c2ccc(Cl)c(C(=O)N(C)Cc3ccc(C(C)(C)C)cc3)c2)CC1
IC50 (Fatty acid synthase [14]): 13.5 µM (active) | IC50 (Fatty acid synthase [15]): 17.3 µM (active)

COc1ccc(C(O)(CCC(C)C)C(CN2CCOCC2)c2ccccc2)cc1 (stereo not drawn)
AC50 [4]: 40.3 µM (active) | AC50 [6]: 51.9 µM (active) | AC50 [8]: 23.3 µM (active) | AC50 [12]: 23.8 µM (active) | AC50 [13]: 5.79 µM (active)

COc1ccccc1-c1nnc2n1N=C(c1ccc(O)c(O)c1)CS2
IC50 (Leucine aminopeptidase): 39.2 µM (active) | AC50 [23]: 1.97 µM (active) | IC50 [24]: > 80 µM (inactive) | AC50 [20]: 12.4 µM (active)
